Legend:
[1] = system: spinal nerve-ligated rats; experiment: Spinal nerve ligation neuropathic pain model in rats (Von-Frey mechanical pain threshold); format: in vivo, male SD rat; conditions: SNL rats; for Mechanical pain threshold (Mean ± SD), base value before modeling: baseline before modeling
Description: A male SD rat weighing 180-220 g was placed on an operating table in a prone position after anesthesia. An incision was made along the spinal column near the hip bone of the animal, and the fascia and muscle were separated. The L5 transverse process was carefully snapped off with a tweezer. The L5 nerve was separated with a glass needle, and the L5 nerve was ligated with 5-0 ligature. The muscle and the skin were sutured and disinfected with iodophor. After 14 days of modeling, the animals were divided into different groups, 10 animals each group. Different compounds were separately orally administered intragastrically. Mechanical pain thresholds of the animals were detected with Von-Frey fiber filaments at different time points after administration. The specific administration dose and detection time are detailed in Table 3 below.
(§1) The mechanical pain threshold detection method: The pelma of the hind limb to be tested of the test animal was continuously stimulated using the Von-Frey fiber filament to bend the fiber filament, and the foot shrinking reaction of the animal was observed. The tested animals were stimulated one by one according to the sequence of the gram number of the fiber filaments from small to large, and each gram number of the fiber filament was continuously used for stimulation for 5 times. If less than 3 positive reactions were present, the procedure described above was repeated using a larger grade of fiber filament, and if 3 or more positive reactions were present for the first time in the test, the fiber filament was the pain threshold for that animal (3 tests per animal for the average). Fiber filament gram number: 0.6, 1.0, 1.4, 2.0, 4.0, 6.0, 8.0, 10.0, and 15.0; the cut value was 15.0 g.

incision pain model rats = experiment: Incision pain model in rats (Von-Frey mechanical pain threshold); format: in vivo, male SD rat; conditions: for Mechanical pain threshold (Mean ± SD), base value before modeling: baseline before modeling
Experimental: A male SD rat weighing 200-250 g was fixed in a prone position after anesthesia. The lateral hind limb sole of the rat was flattened upwards, and the toes were fixed using an operation adhesive tape. Sterilization was performed. A 0.5 cm position of the plantar heel of the animal was incised with a scalpel towards the toe end to incise the fascia and the skin to make a longitudinal incision of about 1 cm. After the flexor digitorum brevis was lifted by the surgical forceps, the abdomen of the muscle was longitudinally incised with a scalpel without completely cutting off the muscle. The skin was sutured and disinfected. On the second day of modeling, the animals were divided into different groups, 8 animals each group. Different compounds were separately orally administered intragastrically. Mechanical pain thresholds of the animals were detected with Von-Frey fiber filaments at different time points after administration. The specific grouping administration dose and detection time are detailed in Table 4 below.
as §1

[2] = Pharmacokinetic assay in mice; format: in vivo; conditions: male, ICR, mouse, plasma, oral intragastric administration, 10 mg/kg
Experimental: Pharmacokinetic assay in mice was performed, wherein the mice used were 3 male ICR mice and fasted overnight. The mice were orally intragastrically dosed with the medicament (10 mg/kg). Blood was collected before administration and at 15 min, 30 min and 1 h, 2 h, 4 h, 6 h, 8 h, and 24 h after administration. Blood samples were centrifuged at 8000 rpm for 6 min at 4° C., and plasma was collected and stored at −20° C. The plasma at each time point was taken, and 3-5 times its amount of an acetonitrile solution containing an internal standard was added for mixing. The mixture was vortexed for 1 min and then centrifuged at 13000 rpm at 4° C. for 10 min. The supernatant was taken, and 3 times its amount of water was added for mixing. A proper amount of the resulting mixture was taken for LC-MS/MS analysis. The major pharmacokinetic parameters were analyzed using a non-compartmental model in the WinNonlin 7.0 software.

Nav1.8 ion channel = Nav1.8 ion channel (Homo sapiens (Human), UniProt Q9Y5Y9); experiment: Inhibitory activity on Nav1.8 ion channel, whole-cell patch-clamp on HEK293/Nav1.8; format: cell-based; conditions: HEK293/Nav1.8, whole-cell patch clamp, holding -80 mV, 1 μM TTX
Experimental: Reagents were purchased from Sigma (St. Louis, MO) except NaOH and KOH for acid-base titration. The final concentrations of the test compounds were all prepared on the day of the test and then dissolved in an extracellular fluid. The extracellular fluid (mM) was NaCl, 137; KCl, 4; CaCl2), 1.8; MgCl2, 1; HEPES, 10; glucose 10; and pH 7.4 (NaOH titration). All test and control compound solutions contained 1 μM TTX. The intracellular fluid (mM) was: aspartic acid, 140; magnesium chloride, 2; ethylene glycol tetraacetic acid (EGTA), 11; and N-2-hydroxyethylpiperazine-N′-2-ethanesulfonic acid (HEPES), 10. The pH was adjusted to 7.4 with cesium hydroxide.
The test compounds were dissolved in dimethylsulfoxide (DMSO) at a concentration of 9 mM. On the day of the test, the compounds were then dissolved in the extracellular fluid and prepared into the required concentration.
The cells were transferred to a perfusion chamber and perfusion was carried out using the extracellular fluid. The intracellular fluid was thawed on the day of the experiment. The electrodes were produced by pulling with PC-10 (Narishige, Japan). Whole-cell patch-clamp recording was carried out. Noise was filtered at one fifth of the sampling frequency. The intracellular fluid with ¼ length of the electrode tube was added into the electrode, and the electrode was installed on a probe. The required Protocol was set, the interface was adjusted to Membrane test, and Stage was adjusted to Bath. A positive pressure was applied in the electrode. The tip of the electrode was contacted with the cell. The three-way valve of the air extractor was adjusted to a three-way state. A negative pressure was then applied to the electrode, so that the electrode and the cell formed a high-resistance seal. Stage was adjusted to Patch, and leak was controlled within −200 pA. A negative pressure was successively applied, so that cell membranes were broken, and a current path was formed. Perfusion was carried out by opening the suction filtration device and the extracellular fluid valve. The cell current was observed, and administration was started when the cell current was stable (at least 3 sweep current curves were overlapped). Administration was performed from low concentration to high concentration. The administration time of each concentration was not less than 2 min, and when the current was stable, the concentration was changed for administration.
For administration of the test samples, perfusion was carried out using a perfusion system utilizing the self gravity. […] During the period, the CV % of all peak current amplitudes should be less than 10% to exclude up and down fluctuations of the initial current. The average of the peak current amplitudes recorded for the last 10 times during the initial recording served as the current peak of the negative control. After the initial current was stable, the test samples were dosed starting from a low concentration until the 10 recorded peak currents were again stable or the peak currents were “constant” after and before administration after continuous administration for 5 min. We defined the following two cases as “stable” or “constant”: 1) if the absolute average of the peak current for 10 consecutive scans exceeded 200 pA and the CV value was less than 10%, 2) or the average of the peak current for 10 consecutive scans was between 200 pA and 50 pA and the CV value was less than 30%. The next detection of higher concentration was then given.
The average of the peak current of the last 10 scans of each concentration was taken as the peak current for that concentration for data analysis. If the stable state was not reached within 5 min, the peak current average of the last 10 scans at that time was used for data analysis as the peak current for that concentration. At the same time, the cells were discarded and no longer used for detection of higher concentration. At least two cells were tested per concentration of the compounds. […]

Row | SMILES | Mechanical pain threshold (Mean ± SD), base value before modeling ([1]; 30 mpk group) [g] | Mechanical pain threshold (Mean ± SD), 1 h after administration ([1]; 30 mpk oral intragastric) [g] | Mechanical pain threshold (Mean ± SD), 3 h after administration ([1]; 30 mpk oral intragastric) [g] | Mechanical pain threshold (Mean ± SD), 6 h after administration ([1]; 30 mpk oral intragastric, 6 h) [g] | Mechanical pain threshold (Mean ± SD), base value before modeling (incision pain model rats; 30 mpk group) [g] | Mechanical pain threshold (Mean ± SD), 1 h after administration (incision pain model rats; 30 mpk oral intragastric) [g] | Mechanical pain threshold (Mean ± SD), 3 h after administration (incision pain model rats; 30 mpk oral intragastric) [g] | Mechanical pain threshold (Mean ± SD), 6 h after administration (incision pain model rats; 30 mpk oral intragastric) [g] | AUC(0-t) [2] [ng·h/mL] | Cmax [2] [ng/mL] | Tmax [2] [h] | half-life [2] [h] | IC50 (Nav1.8 ion channel) [nM] | Mechanical pain threshold (Mean ± SD), base value before modeling ([1]; 100 mpk group) [g] | Mechanical pain threshold (Mean ± SD), 1 h after administration ([1]; 100 mpk oral intragastric) [g] | Mechanical pain threshold (Mean ± SD), 3 h after administration ([1]; 100 mpk oral intragastric) [g] | Mechanical pain threshold (Mean ± SD), base value before modeling (incision pain model rats; 100 mpk group) [g] | Mechanical pain threshold (Mean ± SD), 1 h after administration (incision pain model rats; 100 mpk oral intragastric) [g] | Mechanical pain threshold (Mean ± SD), 3 h after administration (incision pain model rats; 100 mpk oral intragastric) [g] | Mechanical pain threshold (Mean ± SD), 6 h after administration (incision pain model rats; 100 mpk oral intragastric) [g]
1 | CC(C)C[C@H](CN)CC(=O)O [Pregabalin, reference compound] | 13.6 ± 2.7 | 13.8 ± 2.3 | 12.3 ± 2.9 | 12.1 ± 2.3 | 12.7 ± 1.7 | 12.4 ± 1.9 | 11.6 ± 1.1 | 11.3 ± 1.4 | – | – | – | – | – | – | – | – | – | – | – | –
2 | O=C(Nc1cnc[n+]([O-])c1)c1cc(Cl)c(Cl)cc1Oc1ccc(OC(F)(F)F)cc1 [Compound I-1, 5-(4,5-Dichloro-2-(4-(trifluoromethoxy)phenoxy)benzamido)pyrimidine 1-oxide] | – | – | – | – | – | – | – | – | 17300 | 7370 | 0.25 | 2.74 | 14 | 13.6 ± 1.7 | 11.0 ± 4.0 | 11.1 ± 3.7 | 12.6 ± 1.7 | 12.5 ± 1.9 | 11.4 ± 2.0 | 8.4 ± 1.2

Reference: patent US20260022100A1, “NAV1.8 INHIBITOR” (Wuhan Humanwell Innovative Drug Research and Development …, priority 2022, published 2026)
